Molecules are shown by their SMILES. Several values for one entry are separate records, joined by “and”; a condition that tells them apart may be missing. Identical values can stand only once. Counter-ions that a name gives are not always drawn. Bounds are passed on as bounds.

In test [1] the test system is Staphylococcus aureus MW2 delta-mecA (mecA-). In words: IC50 (growth, competition assay). As to conditions: cefoxitin: subinhibitory. The gist of the method: (§1)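 Two fluorescent S. aureus MW2 strains, one carrying and one lacking the resistance gene, were pre-induced, mixed 1:1 and grown unshaken in LB in 1536-well plates for 20 h at 37 °C and 90% humidity with a subinhibitory drug dose set each day. Compounds were tested on five- or nine-point 2-fold gradients in two dye-swapped replicates. DsRed (540/590) and GFP (485/520) signals were scaled per plate between the medians of single-strain controls, and No Treatment was then set to 0.5. For each strain, IC50 was taken as the dose that halved the No Treatment signal, or else the maximal signal.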

In test [2] the test system is Staphylococcus aureus MW2 (mecA+). In words: IC50 (growth, competition assay). As to conditions: cefoxitin: subinhibitory. The gist of the method:
as §1

As to `CCOc1ccc2ccccc2c1C(=O)N[C@@H]1C(=O)N2[C@@H]1SC(C)(C)[C@@H]2C(=O)O` [NALLPEN], the IC50 in test [1] (fluorescent label: DsRed), in test [1] (fluorescent label: GFP), in test [2] (fluorescent label: DsRed) and in test [2] (fluorescent label: GFP) was less than 9.85 µM throughout.

Take `Cc1cc(Nc2nc(N[C@@H](C)c3ccc(F)cc3)c(C#N)cc2F)n[nH]1` [AZ 960]: the IC50 – broadly, the midpoint of a concentration-inhibition curve – in test [1] (fluorescent label: DsRed) stood at 2.4 µM; in test [1] (fluorescent label: GFP), 1.67 µM; in test [2] (fluorescent label: DsRed), 110 µM; in test [2] (fluorescent label: GFP), 112 µM.

`C=C1c2c(Cl)ccc(O)c2C(=O)C2=C(O)[C@]3(O)C(=O)C(C(N)=O)=C(O)[C@@H](N(C)C)[C@@H]3[C@@H](O)[C@H]12.O=C(O)c1cc(S(=O)(=O)O)ccc1O` [MECLAN]: the IC50 in test [1] (fluorescent label: DsRed), in test [1] (fluorescent label: GFP), in test [2] (fluorescent label: DsRed) and in test [2] (fluorescent label: GFP) was less than 9.85 µM each time.

Consider `COc1cc(NS(C)(=O)=O)ccc1Nc1c2ccccc2nc2ccccc12` [Amsacrine hydrochloride], for which the IC50 was less than 9.85 µM in test [1] (fluorescent label: DsRed), less than 9.85 µM in test [1] (fluorescent label: GFP), 106 µM in test [2] (fluorescent label: DsRed) and 97.2 µM in test [2] (fluorescent label: GFP).

Take `CCn1cc(C(=O)O)c(=O)c2cc(F)c(N3CCNC(C)C3)c(F)c21` (stereo unspecified) [Lomefloxacin hydrochloride (Maxaquin)]: the IC50 in test [1] (fluorescent label: DsRed) is 0.56 µM; in test [1] (fluorescent label: GFP), less than 0.498 µM; in test [2] (fluorescent label: DsRed), 1.76 µM; in test [2] (fluorescent label: GFP), 1.78 µM.

With `FC(F)(F)c1ccc(Nc2nc3ccc(Oc4ccnc(-c5ncc(C(F)(F)F)[nH]5)c4)cc3[nH]2)cc1` [Raf265 derivative], the IC50 in test [1] (fluorescent label: DsRed) was less than 9.85 µM; in test [1] (fluorescent label: GFP), less than 9.85 µM; in test [2] (fluorescent label: DsRed) it was 19.6 µM; in test [2] (fluorescent label: GFP) it was 23.4 µM.

With `O=C1NC(=O)/C(=C/c2ccc(-c3ccc(F)cc3O)o2)S1`, the IC50 is less than 9.85 µM in test [1] (fluorescent label: DsRed); less than 9.85 µM in test [1] (fluorescent label: GFP); less than 9.85 µM in test [2] (fluorescent label: DsRed); < 9.85 µM and 13.8 µM in test [2] (fluorescent label: GFP).

For the compound `COc1ccc(CCN2CCC(Nc3nc4ccccc4n3Cc3ccc(F)cc3)CC2)cc1` [HISMANAL], the IC50 in test [1] (fluorescent label: DsRed) was found to be 45.1 µM; in test [1] (fluorescent label: GFP), 20.2 µM; in test [2] (fluorescent label: DsRed), 80.2 µM; in test [2] (fluorescent label: GFP), 106 µM.

On to `CO/N=C(\C(=O)N[C@@H]1C(=O)N2C(C(=O)O)=C(COC(N)=O)CS[C@H]12)c1ccco1` [ZINACEF], for which the 50% inhibitory concentration (IC50) in test [1] (fluorescent label: DsRed) is less than 9.85 µM; in test [1] (fluorescent label: GFP), less than 9.85 µM; in test [2] (fluorescent label: DsRed), 21.3 µM; in test [2] (fluorescent label: GFP), 19.3 µM.

Consider `O=C(/C=C/c1ccc(O)c(O)c1)c1ccc(O)cc1O` [Butein], for which the concentration for half-maximal inhibition (IC50) turned out to be 21.3 µM in test [1] (fluorescent label: DsRed), 30.4 µM in test [1] (fluorescent label: GFP), 92.3 µM in test [2] (fluorescent label: DsRed) and 98.5 µM in test [2] (fluorescent label: GFP).

Regarding `Cc1ccc(S(=O)(=O)C=CC#N)cc1` [BAY 11-7082 (BAY 11-7821)], the IC50 in test [1] (fluorescent label: DsRed) was less than 9.85 µM; in test [1] (fluorescent label: GFP), less than 9.85 µM; in test [2] (fluorescent label: DsRed) it was less than 9.85 µM; in test [2] (fluorescent label: GFP), 9.88 µM.

On to `COc1ccc(NS(=O)(=O)c2sc3ccc(Cl)cc3c2C)cc1N1CCNCC1`, for which the IC50 in test [1] (fluorescent label: DsRed) amounted to 22.7 µM; in test [1] (fluorescent label: GFP), 16.5 µM; in test [2] (fluorescent label: DsRed), 102 µM; in test [2] (fluorescent label: GFP) it was 108 µM.

Take `O=C(O)Cc1cc(I)c(Oc2ccc(O)c(I)c2)c(I)c1` [TRIAC]: the half-maximal inhibitory concentration (IC50) was 11.1 µM in test [1] (fluorescent label: DsRed), less than 9.85 µM in test [1] (fluorescent label: GFP), 12.5 µM in test [2] (fluorescent label: DsRed) and 23 µM in test [2] (fluorescent label: GFP).

With `Cc1onc(-c2ccccc2)c1C(=O)N[C@@H]1C(=O)N2[C@@H]1SC(C)(C)[C@@H]2C(=O)O` [Oxacillin sodium monohydrate], the half-maximal inhibitory concentration (IC50) in test [1] (fluorescent label: DsRed), in test [1] (fluorescent label: GFP), in test [2] (fluorescent label: DsRed) and in test [2] (fluorescent label: GFP) was less than 9.85 µM throughout.

For `CC(C)(Sc1ccc(CCN(CCCCC2CCCCC2)C(=O)NC2CCCCC2)cc1)C(=O)O` [GW7647], the concentration for half-maximal inhibition (IC50) was less than 9.85 µM in test [1] (fluorescent label: DsRed), less than 9.85 µM in test [1] (fluorescent label: GFP), 14.3 µM in test [2] (fluorescent label: DsRed) and 13.1 µM in test [2] (fluorescent label: GFP).

As to `NC(=O)N/N=C/c1ccc([N+](=O)[O-])o1` [ACTIN-N], the IC50 in test [1] (fluorescent label: DsRed) was 10.5 µM; in test [1] (fluorescent label: GFP), less than 9.85 µM; in test [2] (fluorescent label: DsRed), 16.2 µM; in test [2] (fluorescent label: GFP) it was 15 µM.

For the compound `CNCCCC12CCC(c3ccccc31)c1ccccc12` [LUDIOLMIL], the 50% inhibitory concentration (IC50) in test [1] (fluorescent label: DsRed) was 31.2 µM; in test [1] (fluorescent label: GFP) it was 48.5 µM; in test [2] (fluorescent label: DsRed), more than 150 µM; in test [2] (fluorescent label: GFP), 134 µM.

With `O=C(O)CCCCC(CCSCc1ccccc1)SCc1ccccc1` (stereo unspecified) [CPI-613], the IC50 in test [1] (fluorescent label: DsRed) was less than 9.85 µM; in test [1] (fluorescent label: GFP), less than 9.85 µM; in test [2] (fluorescent label: DsRed), 15.5 µM; in test [2] (fluorescent label: GFP), 15 µM.

Consider `Cc1cc(-n2c(=O)[nH]c(=O)n(C)c2=O)ccc1Oc1ccc(SC(F)(F)F)cc1` [BAYCOX], for which the IC50 in test [1] (fluorescent label: DsRed) stood at 59.8 µM; in test [1] (fluorescent label: GFP) it was 32 µM; in test [2] (fluorescent label: DsRed) it was 70.8 µM; in test [2] (fluorescent label: GFP), 113 µM.

For the compound `Oc1ccc(/C=C/c2ccc(/C=C/c3ccc(O)cc3)c(Br)c2)cc1` [K114], the IC50 in test [1] (fluorescent label: DsRed), in test [1] (fluorescent label: GFP), in test [2] (fluorescent label: DsRed) and in test [2] (fluorescent label: GFP) was less than 9.85 µM in each case.

In the case of `O=Nc1c(-c2c(O)[nH]c3cc(Br)ccc23)[nH]c2ccccc12` [BIO], the concentration for half-maximal inhibition (IC50) in test [1] (fluorescent label: DsRed), in test [1] (fluorescent label: GFP), in test [2] (fluorescent label: DsRed) and in test [2] (fluorescent label: GFP) was less than 9.85 µM each time.

Take `CN(C)c1ccc(O)c2c1C[C@H]1C[C@H]3[C@H](N(C)C)C(O)=C(C(N)=O)C(=O)[C@@]3(O)C(O)=C1C2=O` [SOLODYN]: the IC50 in test [1] (fluorescent label: DsRed), in test [1] (fluorescent label: GFP), in test [2] (fluorescent label: DsRed) and in test [2] (fluorescent label: GFP) was less than 9.85 µM in each case.

Turning to `C[C@@H](O[C@H]1OCCN(Cc2nn(P(=O)(O)O)c(=O)[nH]2)[C@H]1c1ccc(F)cc1)c1cc(C(F)(F)F)cc(C(F)(F)F)c1` [Fosaprepitant dimeglumine], the 50% inhibitory concentration (IC50) was determined as 17.2 µM in test [1] (fluorescent label: DsRed), 31.6 µM in test [1] (fluorescent label: GFP), 53.4 µM in test [2] (fluorescent label: DsRed) and 49.3 µM in test [2] (fluorescent label: GFP).

On to `CCCCCCCCCCCCCCCC[N+](C)(C)C` [CETAB], for which the IC50 in test [1] (fluorescent label: DsRed), in test [1] (fluorescent label: GFP), in test [2] (fluorescent label: DsRed) and in test [2] (fluorescent label: GFP) was less than 9.85 µM in each case.

Turning to `Oc1c(Cl)cc(Cl)cc1Sc1cc(Cl)cc(Cl)c1O` [LOROTHIDOL], the IC50 in test [1] (fluorescent label: DsRed), in test [1] (fluorescent label: GFP), in test [2] (fluorescent label: DsRed) and in test [2] (fluorescent label: GFP) was less than 9.85 µM in each case.

Consider `O=C1NC(=O)[C@@H](c2cn3c4c(cccc24)CCC3)[C@@H]1c1c[nH]c2ccccc12` [ARQ 197 (Tivantinib)], for which the IC50 came out at 32.2 µM in test [1] (fluorescent label: DsRed), 57.3 µM in test [1] (fluorescent label: GFP), 107 µM in test [2] (fluorescent label: DsRed) and 112 µM in test [2] (fluorescent label: GFP).

Take `CCCc1c(-c2ccc(O)cc2)nn(-c2ccc(O)cc2)c1-c1ccc(O)cc1` [1,3,5-tris(4-hydroxyphenyl)-4-propyl-1H-pyrazole]: the IC50 was less than 9.85 µM in test [1] (fluorescent label: DsRed), less than 9.85 µM in test [1] (fluorescent label: GFP), 12.5 µM in test [2] (fluorescent label: DsRed) and 20.3 µM in test [2] (fluorescent label: GFP).

For `N=C(N)c1ccc(OCCCCCOc2ccc(C(=N)N)cc2)cc1` [Pentamidine HCl], the IC50 stood at 23.5 µM in test [1] (fluorescent label: DsRed), 16.8 µM in test [1] (fluorescent label: GFP), 37.3 µM in test [2] (fluorescent label: DsRed) and 46.4 µM in test [2] (fluorescent label: GFP).

`NC(=O)c1cc[n+](CC2=C(C(=O)[O-])N3C(=O)[C@@H](NC(=O)Cc4cccs4)[C@H]3SC2)cc1` [CEFALONIUM]: the IC50 in test [1] (fluorescent label: DsRed) is less than 9.85 µM; in test [1] (fluorescent label: GFP) it was less than 9.85 µM; in test [2] (fluorescent label: DsRed) it was 17.5 µM; in test [2] (fluorescent label: GFP), 15.3 µM.

These data come from the supplement of paper PMC7695840.
